System: normal human dermal fibroblasts
Test: Measurement in vitro of the production of hyaluronic acid (STAINS ALL, 630 nm)
Type: cell-based
Details: incubation concentration 10 ng/ml; 5 days
Experimental: Glycosaminoglycans (GAGs) are the major proteoglycans of the dermis and play an essential role in maintaining the integrity of the skin. Hyaluronic acid is a major nonsulphated GAG which plays an essential role in the hydration of the skin by its capacity to fix up to 1000 times its weight as water. The effect of the products on the hyaluronic acid level was evaluated by a technique in vitro.
The hyaluronic acid level is measured in cultures of normal human dermal fibroblasts. The cells are incubated for 5 days in the presence of the products solubilized in the incubation medium. At the end of this incubation, the extracellular media in which the hyaluronic acid is secreted are collected. The hyaluronic acid is stained with a specific stain, STAINS ALL ((1-ethyl-2-[3-(1-ethylnaphtho-[1,2-d]thiazolin-2-ylidene)-2-methylpropenyl]naphtho-[1,2-d]thiazolium bromide, SIGMA), which interacts with it to produce a change in the absorption spectrum between 620 and 660 nm; the measurement is made by spectrophotometry. A hyaluronic acid series is prepared in parallel. […]
Evaluation of the effects: After 5 days of incubation in the presence of the products, the incubation media are collected and incubated in the presence of STAINS ALL. […] The quantification is made by spectrophotometry at 630 nm. […] The results are expressed as extracellular hyaluronic acid relative to the control.

Substance: EGF: reference in the hyaluronic acid production test, 10 ng/ml
- Extracellular hyaluronic acid produced (% relative to the control): 133%

Reference: patent publication US20040166079A1, “N-Lauroyl amino acid composition for slimming the human body” (priority 2003, published 2004)
